Assay results reported in patent publication US9951065B2 (Gilead Sciences, Inc., priority 2015, dated 2018).

Target: T1, IDO1 (Homo sapiens, UniProt P14902)
T1 construct: HeLa cells were treated with a test compound in the presence of IFNγ, which induces IDO1 expression; host or cells: H1-HeLa cells, IDO1 induced with IFNγ
Test: Cell-based (HeLa) assay for measurement of IDO1 inhibition (kynurenine levels in supernatant after IFNγ induction)
Details: HeLa cells, IFNγ-induced IDO1, kynurenine in supernatant after 48 hour incubation; geometric mean of a minimum of four determinations
Procedure: Example 509. Cell-Based (HeLa) Assay for Measurement of IDOL Inhibition
To measure IDO1 inhibition in tissue culture, HeLa cells were treated with a test compound in the presence of IFNγ, which induces IDO1 expression. Following incubation, cell supernatants were assayed for kynurenine levels, an indicator of IDO1 activity.
H1-HeLa cells (ATCC #CRL-1958) were seeded in 384-well plates (Greiner #82051-282) at a volume of 50 μL/well in DMEM (Corning #15-018-CM) supplemented with 10% FBS (Corning #35-011-CV) and 1% P/S/G (Corning #30-009-CL) at a density of 1,250 cells/well and incubated overnight at 37° C., 5% CO2/100% humidity. The following day, the test compounds were added in DMSO (0.5% final) at various concentrations, and IDO1 was inducibly expressed by the addition of 50 uL/well of […] of INFγ (Peprotech #300-02) in cell plating media. As a […] control, 50 uL of the cell plating media without IFNγ was added to several wells. Following a 48 hour incubation, the plates were spun down at 1,200 RPM for 5 min at 10° C. 65 μL/well of the supernatant was then transferred to new 384-well plates (Thermo #262160) that contained 10 uL/well of 30% TCA (Sigma #TO699), and the plates were sealed and incubated at 60° C. for 30 min. The plates were then centrifuged for 15 min at 2,000 RPM at 10° C. 40 μL/well of the supernatant was transferred to new 384-well plates (Thermo #262160) and was reacted with 40 μL/well of 2% (w/v) p-dimethlyaminobenzaldehyde (Sigma #156417) in glacial acetic acid (Sigma #A6283). The reaction was incubated at room temperature for 10 min and absorbance at 480 nm was read using a PerkinElmer Envision plate reader.
Data in Table 1 were normalized based on positive (−IFNγ) and negative (+IFNγ) controls and EC50 values were calculated from the fit of the dose response curves to a four-parameter equation. All EC50 values represent geometric mean values of a minimum of four determinations. These assays generally produced results within 2-fold of the reported mean.

T1 sequence (P14902 whole entry): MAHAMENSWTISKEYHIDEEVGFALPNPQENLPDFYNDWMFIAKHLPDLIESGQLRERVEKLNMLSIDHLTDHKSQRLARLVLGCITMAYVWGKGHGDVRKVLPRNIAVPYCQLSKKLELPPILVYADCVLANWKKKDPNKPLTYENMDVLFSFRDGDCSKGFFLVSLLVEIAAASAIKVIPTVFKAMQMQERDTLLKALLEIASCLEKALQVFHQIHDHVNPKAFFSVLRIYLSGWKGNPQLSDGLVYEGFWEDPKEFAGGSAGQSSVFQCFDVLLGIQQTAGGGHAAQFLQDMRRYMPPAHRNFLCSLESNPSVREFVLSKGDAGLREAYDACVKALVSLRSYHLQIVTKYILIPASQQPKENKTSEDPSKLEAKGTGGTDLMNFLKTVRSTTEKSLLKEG

| Compound | EC50 |
| --- | --- |
| Cc1ccc(/C(=N/O)Nc2ccc(F)c(Cl)c2)c2[nH]cnc12 [Example 1, N-(3-Chloro-4-fluorophenyl)-N′-hydroxy-4-methyl-1H-benzo[d]imidazole-7-carboximidamide] | 1220 nM |
| O/N=C(\Nc1ccc(F)c(Cl)c1)c1ccc(OC(F)(F)F)c2nc[nH]c12 [Example 2, N-(3-Chloro-4-fluorophenyl)-N′-hydroxy-4-(trifluoromethoxy)-1H-benzo[d]imidazole-7-carboximidamide] | 2460 nM |
| O/N=C(\Nc1ccc(F)c(Cl)c1)c1c(F)ccc2nc[nH]c12 [Example 3, N-(3-Chloro-4-fluorophenyl)-6-fluoro-N′-hydroxy-1H-benzo[d]imidazole-7-carboximidamide] | 4800 nM |
| O/N=C(\Nc1ccc(F)c(Cl)c1)c1cc(F)cc2nc[nH]c12 [Example 4, N-(3-Chloro-4-fluorophenyl)-5-fluoro-N′-hydroxy-1H-benzo[d]imidazole-7-carboximidamide] | 527 nM |
| O/N=C(\Nc1ccc(F)c(Cl)c1)c1ccc(F)c2nc[nH]c12 [Example 5, N-(3-Chloro-4-fluorophenyl)-4-fluoro-N′-hydroxy-1H-benzo[d]imidazole-7-carboximidamide] | 542 nM |
| O/N=C(\Nc1ccc(F)c(Cl)c1)c1ccc(Cl)c2nc[nH]c12 [Example 6, 4-Chloro-N-(3-chloro-4-fluorophenyl)-N′-hydroxy-1H-benzo[d]imidazole-7-carboximidamide] | 793 nM |
| O/N=C(\Nc1ccc(F)c(Cl)c1)c1ccc(C(F)(F)F)c2nc[nH]c12 [Example 7, N-(3-Chloro-4-fluorophenyl)-N′-hydroxy-4-(trifluoromethyl)-1H-benzo[d]imidazole-7-carboximidamide] | 926 nM |
| O/N=C(\Nc1ccc(F)c(Cl)c1)c1cccc2nc[nH]c12 [Example 8, N-(3-Chloro-4-fluorophenyl)-N′-hydroxy-1H-benzo[d]imidazole-7-carboximidamide] | 1790 nM |
| Cc1c(F)cc(/C(=N/O)Nc2ccc(F)c(Cl)c2)c2[nH]cnc12 [Example 9, N-(3-Chloro-4-fluorophenyl)-6-fluoro-N′-hydroxy-7-methyl-3H-benzimidazole-4-carboximidamide] | 634 nM |
| O/N=C(\Nc1ccc(F)c(Cl)c1)c1cc(F)c(F)c2nc[nH]c12 [Example 10, N-(3-chloro-4-fluorophenyl)-4,5-difluoro-N′-hydroxy-1H-benzo[d]imidazole-7-carboximidamide] | 438 nM |
| O/N=C(\Nc1ccc(F)c(Cl)c1)c1cc(Cl)cc2[nH]cnc12 [Example 11, 6-Chloro-N-(3-chloro-4-fluorophenyl)-N′-hydroxy-1H-benzo[d]imidazole-4-carboximidamide] | 7600 nM |
| O/N=C(\Nc1ccc(F)c(Cl)c1)c1ccc(Br)c2nc[nH]c12 [Example 12, 4-Bromo-N-(3-chloro-4-fluorophenyl)-N′-hydroxy-1H-benzo[d]imidazole-7-carboximidamide] | 660 nM |
| Nc1nc2c(F)c(F)cc(/C(=N/O)Nc3ccc(F)c(Cl)c3)c2[nH]1 [Example 13, 2-Amino-N-(3-chloro-4-fluorophenyl)-4,5-difluoro-N′-hydroxy-1H-benzo[d]imidazole-7-carboximidamide] | 2740 nM |
| Nc1nc2c(F)c(F)cc(/C(=N/O)Nc3ccc(F)c(Br)c3)c2[nH]1 [Example 14, 2-Amino-N-(3-bromo-4-fluorophenyl)-4,5-difluoro-N′-hydroxy-1H-benzo[d]imidazole-7-carboximidamide] | 494 nM |
| Nc1nc2c(F)c(F)cc(/C(=N/O)Nc3cccc(Br)c3)c2[nH]1 [Example 15, 2-Amino-N-(3-bromophenyl)-4,5-difluoro-N′-hydroxy-1H-benzo[d]imidazole-7-carboximidamide] | 570 nM |
| Nc1nc2c(F)c(F)cc(/C(=N/O)Nc3cccc(Cl)c3)c2[nH]1 [Example 16, 2-Amino-N-(3-chlorophenyl)-4,5-difluoro-N′-hydroxy-1H-benzo[d]imidazole-7-carboximidamide] | 607 nM |

| Compound | EC50 |
| --- | --- |
| Nc1nc2c(F)c(F)cc(/C(=N/O)Nc3ccc(F)c(C(F)(F)F)c3)c2[nH]1 [Example 17, 2-Amino-4,5-difluoro-N-(4-fluoro-3-(trifluoromethyl)phenyl)-N′-hydroxy-1H-benzo[d]imidazole-7-carboximidamide] | 1090 nM |
| Nc1nc2c(F)ccc(/C(=N/O)Nc3cccc(Br)c3)c2[nH]1 [Example 18, 2-Amino-N-(3-bromophenyl)-4-fluoro-N′-hydroxy-1H-benzo[d]imidazole-7-carboximidamide] | 312 nM |
| Nc1nc2c(F)ccc(/C(=N/O)Nc3ccc(F)c(Br)c3)c2[nH]1 [Example 19, 2-Amino-N-(3-bromo-4-fluorophenyl)-4-fluoro-N′-hydroxy-1H-benzo[d]imidazole-7-carboximidamide] | 456 nM |
| Nc1nc2c(F)ccc(/C(=N/O)Nc3cccc(Cl)c3)c2[nH]1 [Example 20, 2-Amino-N-(3-chlorophenyl)-4-fluoro-N′-hydroxy-1H-benzo[d]imidazole-7-carboximidamide] | 404 nM |
| Nc1nc2c(F)ccc(/C(=N/O)Nc3ccc(F)c(C(F)(F)F)c3)c2[nH]1 [Example 21, 2-Amino-4-fluoro-N-(4-fluoro-3-(trifluoromethyl)phenyl)-N′-hydroxy-1H-benzo[d]imidazole-7-carboximidamide] | 725 nM |
| Nc1nc2c(F)ccc(/C(=N/O)Nc3ccc(F)c(Cl)c3)c2[nH]1 [Example 22, 2-Amino-N-(3-chloro-4-fluorophenyl)-4-fluoro-N′-hydroxy-1H-benzo[d]imidazole-7-carboximidamide] | 382 nM |
| O/N=C(\Nc1ccc(F)c(Cl)c1)c1cc(F)c(F)c2nc(NCCN3CCOCC3)[nH]c12 [Example 23, N-(3-Chloro-4-fluorophenyl)-4,5-difluoro-N′-hydroxy-2-((2-morpholinoethyl)amino)-1H-benzo[d]imidazole-7-carboximidamide] | 346 nM |
| COCCCNCc1nc2c(F)c(F)cc(/C(=N/O)Nc3cccc(Cl)c3)c2[nH]1 [Example 24, N-(3-Chlorophenyl)-4,5-difluoro-N′-hydroxy-2-(((3-methoxypropyl)amino)methyl)-1H-benzo[d]imidazole-7-carboximidamide] | 1920 nM |
| O/N=C(\Nc1cccc(Cl)c1)c1cc(F)c(F)c2nc(CNCC3CC3)[nH]c12 [Example 25, N-(3-Chlorophenyl)-2-(((cyclopropylmethyl)amino)methyl)-4,5-difluoro-N′-hydroxy-1H-benzo[d]imidazole-7-carboximidamide] | 1460 nM |
| CN(C)Cc1nc2c(F)c(F)cc(/C(=N/O)Nc3cccc(Cl)c3)c2[nH]1 [Example 26, N-(3-Chlorophenyl)-2-((dimethylamino)methyl)-4,5-difluoro-N′-hydroxy-1H-benzo[d]imidazole-7-carboximidamide] | 1210 nM |
| CC(C)NCc1nc2c(F)c(F)cc(/C(=N/O)Nc3cccc(Cl)c3)c2[nH]1 [Example 27, N-(3-Chlorophenyl)-4,5-difluoro-N′-hydroxy-2-((isopropylamino)methyl)-1H-benzo[d]imidazole-7-carboximidamide] | 839 nM |
| CCNCc1nc2c(F)c(F)cc(/C(=N/O)Nc3cccc(Cl)c3)c2[nH]1 [Example 28, N-(3-Chlorophenyl)-2-((ethylamino)methyl)-4,5-difluoro-N′-hydroxy-1H-benzo[d]imidazole-7-carboximidamide] | 801 nM |
| OCc1nc2c(F)c(F)cc(/C(=N/O)Nc3cccc(Cl)c3)c2[nH]1 [Example 29, N-(3-Chlorophenyl)-4,5-difluoro-N′-hydroxy-2-(hydroxymethyl)-1H-benzo[d]imidazole-7-carboximidamide] | 1540 nM |
| CNCc1nc2c(F)c(F)cc(/C(=N/O)Nc3cccc(Cl)c3)c2[nH]1 [Example 30, N-(3-Chlorophenyl)-4,5-difluoro-N′-hydroxy-2-((methylamino)methyl)-1H-benzo[d]imidazole-7-carboximidamide] | 1110 nM |
| NCc1nc2c(F)c(F)cc(/C(=N/O)Nc3cccc(Cl)c3)c2[nH]1 [Example 31, 2-(Aminomethyl)-N-(3-chlorophenyl)-4,5-difluoro-N′-hydroxy-1H-benzo[d]imidazole-7-carboximidamide] | 1680 nM |
| O/N=C(\Nc1ccc(F)c(Cl)c1)c1cc(F)c(F)c2nc(N3CCOCC3)[nH]c12 [Example 32, N-(3-Chloro-4-fluorophenyl)-4,5-difluoro-N′-hydroxy-2-morpholino-1H-benzo-[d]imidazole-7-carboximidamide] | 9280 nM |
